One data set relates to gout attack. The text has this: 2. Preparation of Embrocation • Take KOH16.8 g, dissolve in 1 liters of distilled water, and get a concentration of 0.3 mol/L.
They dripped a cotton swab into the embrocation (0.1 mol/L) prepared by themself and embrocated on the attack position.

The subject of data set [1] is blood uric acid. The settings on record: applicant. On the procedure: On December 3, they took a footbath in 45° C. soaking solution (0.01 mol/L) for an hour, and then went to test at Chaohu Hospital of Anhui Medical University.
Data set [2] concerns blood uric acid. The note with it: applicant. On the procedure:
2. Preparation of Oral Liquid • Take KOH0.12 g, dissolve in 1 liters of distilled water, and get a concentration of 0.0021 mol/L. Take orally for 50 ml per time and one time per day.
So they began to take oral use tests from January 2016. […] The oral concentration (mol/L) they had tried includes 0.001, 0.0018, 0.0021, 0.0025, 0.003, 0.005 and 0.008 in turn.
The source holds these as a separate data set.

A further data set concerns gout. The protocol:
The solution can be also heated to 40-48° C. and then used for footbath. For acute gout attack, if the attack position is easy to soak, such as ankles, toe joints, hands and wrist joints, the solution can also be used to soak such positions. The solution should be embrocated on the attack positions if such positions are not convenient to soak, such as knee joints and elbow joints. […] Drip a cotton swab in the embrocation and embrocate on the attack positions, or drip a dressing in the embrocation and apply on the attack positions. It is very inconvenient to undress when applying topical drug in cold season, then oral drug is an option. […] Have 50 ml of the liquid before meals. For the sufferers of high blood uric acid and acute, intermittent and chronic gout, the embrocation, soak solution and oral liquid can be used separately or concurrently at the same time.

The subject of the next data set is high uric acid and gout. The note with it: water injection for intravenous drip, high uric acid and gout sufferers.
For data set [3] the following is noted: cited from earlier work; for solubility: 37° C.
The conditions of data set [4]: cited from earlier work.
The mark [5] stands for this setting: December 3, one footbath in 45° C. soaking solution (0.01 mol/L) for an hour.
Where [6] appears, read: baseline, day after eating two chicken livers.

The text below walks through data of patent US10076539B2 (priority 2016, dated 2018).

Values after ≈ are worked out from the molar mass of the structure shown.

Consider `[K+].[OH-]` [KOH, potassium hydroxide], for which the “time until pain was relieved and foot could touch the ground” value in the data set on gout attack (embrocation 0.1 mol/L on first metatarsophalangeal joint, applicant, May 2008) is on record as “about ten”. Further, in the data set on gout attack (embrocation 0.1 mol/L, 2-3 times per day, applicant), the “time until gout symptoms disappeared” value is listed as “three”. Besides, the “effect on swelling and soreness (forerunner of gout), prevention of onset” value in the data set on gout attack (embrocation, molar concentration of KOH solution 0.1, 0.2, 0.3 and 0.4, 2009-2013, applicant) was “all were effective”. Also, in the data set with blood uric acid [1] (setting [5]), the “blood uric acid after footbath” value is recorded as 486 μmol/LL and the “urine uric acid after footbath” value is 6.59 mmol/L. Also, in the data set with blood uric acid [1] (December 10, footbath once a day since December 3, soaking solution 0.01 mol/L), the “blood uric acid after footbath once a day” value worked out at 389 µmol/L. Also, in the data set on blood uric acid [1] (December 10 versus 495 μmol/L before footbath), the “drop of blood uric acid” value is recorded as 21%. In the data set on blood uric acid [1] (setting [6]), the “blood uric acid before footbath” value was 495 µmol/L and the “urine uric acid before footbath” value is listed as 6.3 mmol/L. For the same compound, the “blood uric acid after oral use” value in the data set on blood uric acid [2] (April 2016, after oral KOH solution 23 times since January 2016) amounted to 351 µmol/L. Also, the “discomfort / taste of oral liquid” value with blood uric acid [2] (oral liquid 0.001 mol/L-0.005 mol/L) was “brought no discomfort to the body”. For the same compound, in the data set on gout (footbath, oral or embrocation), the “consecutive days of application until gout symptoms completely disappear” value lay in the range of 2 to 3 days; the “time to relief of symptoms (pain and swelling during gout attack)” value is listed as “ten”. Also, in the data set with gout (low concentration KOH), the “corrosion of the skin” value is recorded as “will not corrode the skin” and the side effects entry is “no side effects”. Further, in the data set on high uric acid and gout, the “anticipated effect of intravenous drip” value is on record as “immediate effect”.
Consider `O=c1[nH]c(=O)c2[nH]c(=O)[nH]c2[nH]1` [potassium urate], for which the “solubility compared with uric acid and sodium urate” value in data set [3] is “much higher than uric acid and sodium urate”.
Usually solubility stands for how much of the substance goes into solution per volume. `O=c1[nH]c(=O)c2[nH]c([O-])nc2[nH]1.[Na+]` [sodium urate]: the solubility in data set [3] was 8.0 mM.
With `O=c1[nH]c(=O)c2[nH]c(=O)[nH]c2[nH]1` [uric acid, 2,6,8-Trihydroxypurine], the “dissociation constant (PKa), the 3rd nitrogen dissociation” value in data set [4] is 10.3. In addition, in data set [3], the solubility is 0.5 mM (≈ 84.1 µg/mL).
